{"source": "ChEMBL document CHEMBL5465560", "about": "“Selectivity Literature for EUbOPEN Chemogenomic Library” (2024)", "key": {"[1]": {"biological_target": "T1, Tyrosine-protein kinase TXK (Homo sapiens) (UniProt P42681)", "T1 sequence (whole entry)": "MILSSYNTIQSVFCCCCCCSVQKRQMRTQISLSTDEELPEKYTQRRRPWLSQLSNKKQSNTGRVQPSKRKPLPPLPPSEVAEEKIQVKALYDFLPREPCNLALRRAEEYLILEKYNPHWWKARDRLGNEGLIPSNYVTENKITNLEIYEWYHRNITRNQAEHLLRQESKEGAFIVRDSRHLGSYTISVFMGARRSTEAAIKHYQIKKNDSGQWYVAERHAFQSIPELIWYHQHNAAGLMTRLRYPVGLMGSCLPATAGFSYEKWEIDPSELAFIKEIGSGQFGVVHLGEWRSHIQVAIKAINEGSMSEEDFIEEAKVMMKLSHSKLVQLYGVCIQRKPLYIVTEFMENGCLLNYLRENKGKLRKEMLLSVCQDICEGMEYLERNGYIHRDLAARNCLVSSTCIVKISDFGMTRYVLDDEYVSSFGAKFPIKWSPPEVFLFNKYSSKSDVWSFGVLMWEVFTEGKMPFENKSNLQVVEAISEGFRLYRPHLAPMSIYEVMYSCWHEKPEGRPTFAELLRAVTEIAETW", "test": "Selectivity interaction (KinomeScan (DiscoverX)) EUB0000595a TXK", "conditions": "at 10 µM"}, "Aurora kinase B": {"biological_target": "Aurora kinase B (Homo sapiens, UniProt Q96GD4)", "sequence (Q96GD4 whole entry)": "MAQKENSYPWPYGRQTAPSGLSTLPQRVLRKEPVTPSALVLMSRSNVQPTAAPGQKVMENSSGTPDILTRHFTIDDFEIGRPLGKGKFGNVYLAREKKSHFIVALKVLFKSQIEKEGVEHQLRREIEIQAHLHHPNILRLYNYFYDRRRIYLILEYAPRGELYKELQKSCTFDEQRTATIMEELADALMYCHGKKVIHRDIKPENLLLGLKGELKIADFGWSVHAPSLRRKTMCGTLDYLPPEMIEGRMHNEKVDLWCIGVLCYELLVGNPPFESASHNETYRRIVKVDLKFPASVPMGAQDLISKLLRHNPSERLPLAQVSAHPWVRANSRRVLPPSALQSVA", "test": "Selectivity interaction (Kinase panel (DSF assay)) EUB0001559a AURKB"}, "[2]": {"biological_target": "Calcium/calmodulin-dependent protein kinase type 1D (Homo sapiens) (UniProt Q8IU85)", "sequence (Q8IU85 whole entry, looked up)": "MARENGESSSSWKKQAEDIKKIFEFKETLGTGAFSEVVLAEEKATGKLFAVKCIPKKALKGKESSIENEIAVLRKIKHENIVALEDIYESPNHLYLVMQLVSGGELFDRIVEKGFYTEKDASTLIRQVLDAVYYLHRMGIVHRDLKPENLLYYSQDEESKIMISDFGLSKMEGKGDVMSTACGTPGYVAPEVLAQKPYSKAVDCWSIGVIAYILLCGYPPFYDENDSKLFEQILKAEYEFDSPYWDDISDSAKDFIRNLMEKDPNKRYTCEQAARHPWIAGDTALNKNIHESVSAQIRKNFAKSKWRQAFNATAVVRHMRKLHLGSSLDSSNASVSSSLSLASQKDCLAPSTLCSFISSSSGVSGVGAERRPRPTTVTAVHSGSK", "conditions": "at 10 µM"}, "[3]": {"biological_target": "Dual specificity testis-specific protein kinase 1 (Homo sapiens) (UniProt Q15569)", "sequence (Q15569 whole entry, looked up)": "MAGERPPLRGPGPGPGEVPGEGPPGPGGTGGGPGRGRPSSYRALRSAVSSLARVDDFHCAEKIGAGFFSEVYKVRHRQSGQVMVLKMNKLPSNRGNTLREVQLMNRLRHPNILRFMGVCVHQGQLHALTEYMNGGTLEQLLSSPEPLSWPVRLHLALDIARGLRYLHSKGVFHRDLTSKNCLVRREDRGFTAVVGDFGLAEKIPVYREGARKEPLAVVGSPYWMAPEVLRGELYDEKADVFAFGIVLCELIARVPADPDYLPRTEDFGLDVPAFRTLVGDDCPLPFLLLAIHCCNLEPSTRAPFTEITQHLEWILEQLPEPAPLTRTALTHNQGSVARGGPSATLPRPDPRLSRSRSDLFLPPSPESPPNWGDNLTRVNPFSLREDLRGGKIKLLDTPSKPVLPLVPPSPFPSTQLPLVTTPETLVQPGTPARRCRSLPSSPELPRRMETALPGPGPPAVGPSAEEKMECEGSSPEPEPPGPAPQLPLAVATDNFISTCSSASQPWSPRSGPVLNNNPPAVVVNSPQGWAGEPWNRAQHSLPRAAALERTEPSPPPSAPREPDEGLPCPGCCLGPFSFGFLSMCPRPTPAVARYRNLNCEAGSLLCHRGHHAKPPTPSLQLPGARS", "test": "Selectivity interaction (KinomeScan (DiscoverX)) EUB0001049a TESK1", "conditions": "at 1 µM"}, "[4]": {"biological_target": "Serine/threonine-protein kinase MRCK alpha (Homo sapiens) (UniProt Q5VT25)", "sequence (Q5VT25 whole entry)": "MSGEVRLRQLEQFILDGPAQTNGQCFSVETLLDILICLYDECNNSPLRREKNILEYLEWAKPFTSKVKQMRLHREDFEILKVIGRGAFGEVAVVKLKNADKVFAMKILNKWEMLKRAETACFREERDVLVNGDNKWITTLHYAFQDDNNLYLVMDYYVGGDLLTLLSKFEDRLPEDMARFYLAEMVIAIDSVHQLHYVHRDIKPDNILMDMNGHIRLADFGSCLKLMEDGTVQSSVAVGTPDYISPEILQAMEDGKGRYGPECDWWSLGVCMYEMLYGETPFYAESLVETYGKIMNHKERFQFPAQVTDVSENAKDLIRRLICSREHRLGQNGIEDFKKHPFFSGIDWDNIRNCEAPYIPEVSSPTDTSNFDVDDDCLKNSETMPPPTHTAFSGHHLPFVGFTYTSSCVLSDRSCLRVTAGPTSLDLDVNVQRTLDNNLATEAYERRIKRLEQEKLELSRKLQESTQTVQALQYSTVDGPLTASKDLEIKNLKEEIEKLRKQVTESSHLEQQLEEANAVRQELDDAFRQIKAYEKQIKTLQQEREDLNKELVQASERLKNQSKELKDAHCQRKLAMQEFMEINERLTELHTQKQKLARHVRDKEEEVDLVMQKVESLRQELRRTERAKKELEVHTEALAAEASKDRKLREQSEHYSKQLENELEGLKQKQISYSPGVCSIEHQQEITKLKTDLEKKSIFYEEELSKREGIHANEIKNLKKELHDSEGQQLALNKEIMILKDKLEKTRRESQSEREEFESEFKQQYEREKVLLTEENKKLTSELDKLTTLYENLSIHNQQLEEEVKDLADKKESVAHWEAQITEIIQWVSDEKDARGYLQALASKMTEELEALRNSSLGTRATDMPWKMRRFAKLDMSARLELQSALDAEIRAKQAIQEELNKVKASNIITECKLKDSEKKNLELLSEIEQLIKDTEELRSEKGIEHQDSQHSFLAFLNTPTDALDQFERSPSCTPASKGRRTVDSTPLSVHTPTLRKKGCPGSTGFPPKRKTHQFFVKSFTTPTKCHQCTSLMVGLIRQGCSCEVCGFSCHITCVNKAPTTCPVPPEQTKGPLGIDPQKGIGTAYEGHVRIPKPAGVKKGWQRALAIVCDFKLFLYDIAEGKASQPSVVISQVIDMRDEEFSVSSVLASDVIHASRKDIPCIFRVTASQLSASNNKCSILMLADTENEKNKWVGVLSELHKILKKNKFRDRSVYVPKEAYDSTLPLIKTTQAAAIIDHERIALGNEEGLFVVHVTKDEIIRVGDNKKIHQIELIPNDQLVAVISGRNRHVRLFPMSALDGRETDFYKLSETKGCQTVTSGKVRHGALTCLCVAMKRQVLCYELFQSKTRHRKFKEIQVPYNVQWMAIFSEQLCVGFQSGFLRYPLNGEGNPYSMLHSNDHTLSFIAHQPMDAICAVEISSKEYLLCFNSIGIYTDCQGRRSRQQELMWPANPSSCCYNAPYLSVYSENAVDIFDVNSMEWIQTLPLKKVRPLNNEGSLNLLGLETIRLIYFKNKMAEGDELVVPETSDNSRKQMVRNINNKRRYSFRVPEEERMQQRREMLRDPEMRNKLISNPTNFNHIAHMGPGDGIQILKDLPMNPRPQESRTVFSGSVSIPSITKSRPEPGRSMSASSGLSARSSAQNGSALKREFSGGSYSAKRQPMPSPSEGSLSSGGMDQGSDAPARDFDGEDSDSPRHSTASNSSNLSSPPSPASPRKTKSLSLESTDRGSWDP", "test": "Selectivity interaction (KinomeScan (DiscoverX)) EUB0001619a CDC42BPA", "conditions": "at 1 µM"}, "[5]": {"biological_target": "T2, Mitogen-activated protein kinase kinase kinase 13 (Homo sapiens) (UniProt O43283)", "T2 sequence (whole entry)": "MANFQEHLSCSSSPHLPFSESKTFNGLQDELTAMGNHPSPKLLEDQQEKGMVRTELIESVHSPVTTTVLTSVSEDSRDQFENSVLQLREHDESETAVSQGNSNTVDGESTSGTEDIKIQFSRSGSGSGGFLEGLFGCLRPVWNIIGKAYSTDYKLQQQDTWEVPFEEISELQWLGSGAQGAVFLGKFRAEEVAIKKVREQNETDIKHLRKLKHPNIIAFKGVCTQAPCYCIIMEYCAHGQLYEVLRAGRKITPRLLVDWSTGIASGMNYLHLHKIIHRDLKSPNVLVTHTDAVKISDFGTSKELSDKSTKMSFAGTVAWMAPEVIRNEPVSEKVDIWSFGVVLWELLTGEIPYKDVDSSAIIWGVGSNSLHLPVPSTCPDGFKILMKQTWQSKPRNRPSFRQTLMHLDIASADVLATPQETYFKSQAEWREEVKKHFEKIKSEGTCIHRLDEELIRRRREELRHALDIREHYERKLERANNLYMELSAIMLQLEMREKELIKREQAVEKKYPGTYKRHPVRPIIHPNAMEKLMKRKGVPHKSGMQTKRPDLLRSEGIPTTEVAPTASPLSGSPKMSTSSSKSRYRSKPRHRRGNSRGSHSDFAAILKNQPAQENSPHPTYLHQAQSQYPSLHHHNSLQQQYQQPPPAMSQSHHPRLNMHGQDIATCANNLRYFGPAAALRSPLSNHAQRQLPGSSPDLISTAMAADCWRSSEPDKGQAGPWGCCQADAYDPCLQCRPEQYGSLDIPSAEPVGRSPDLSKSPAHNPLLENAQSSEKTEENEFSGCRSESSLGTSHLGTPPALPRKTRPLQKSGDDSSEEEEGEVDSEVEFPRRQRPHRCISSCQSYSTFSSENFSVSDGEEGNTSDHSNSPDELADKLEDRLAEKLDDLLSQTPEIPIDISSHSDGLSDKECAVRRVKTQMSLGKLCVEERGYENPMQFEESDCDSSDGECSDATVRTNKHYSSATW", "test": "Selectivity interaction (KinomeScan (DiscoverX)) EUB0001619a MAP3K13", "conditions": "at 1 µM"}, "[6]": {"biological_target": "Ribosomal protein S6 kinase alpha-5 (Homo sapiens) (UniProt O75582)", "sequence (O75582 whole entry, looked up)": "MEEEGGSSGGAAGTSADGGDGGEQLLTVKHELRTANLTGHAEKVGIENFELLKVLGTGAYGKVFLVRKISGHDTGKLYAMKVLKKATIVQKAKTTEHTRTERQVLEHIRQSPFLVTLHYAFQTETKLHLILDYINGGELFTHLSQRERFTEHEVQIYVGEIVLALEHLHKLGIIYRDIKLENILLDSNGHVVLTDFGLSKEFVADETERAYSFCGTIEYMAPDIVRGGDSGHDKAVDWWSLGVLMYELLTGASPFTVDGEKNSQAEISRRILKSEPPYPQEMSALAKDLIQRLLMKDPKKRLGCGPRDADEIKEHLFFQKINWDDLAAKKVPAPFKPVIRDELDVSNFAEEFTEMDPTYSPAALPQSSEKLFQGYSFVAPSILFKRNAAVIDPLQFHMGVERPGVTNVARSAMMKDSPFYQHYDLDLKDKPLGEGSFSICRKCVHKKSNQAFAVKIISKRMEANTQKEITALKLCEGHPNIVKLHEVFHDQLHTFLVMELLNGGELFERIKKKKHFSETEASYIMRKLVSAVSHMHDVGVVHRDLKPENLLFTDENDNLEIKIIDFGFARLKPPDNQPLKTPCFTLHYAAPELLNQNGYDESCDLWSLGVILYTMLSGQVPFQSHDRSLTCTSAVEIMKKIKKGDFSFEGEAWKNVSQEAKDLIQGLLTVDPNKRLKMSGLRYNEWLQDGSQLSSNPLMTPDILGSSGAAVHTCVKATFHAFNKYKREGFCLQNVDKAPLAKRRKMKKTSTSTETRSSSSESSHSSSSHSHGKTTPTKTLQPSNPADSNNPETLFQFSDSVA", "test": "Selectivity interaction (KinomeScan (DiscoverX)) EUB0000607a RPS6KA5", "conditions": "at 10 µM"}, "[7]": {"biological_target": "RAC-beta serine/threonine-protein kinase (Homo sapiens) (UniProt P31751)", "sequence (P31751 whole entry)": "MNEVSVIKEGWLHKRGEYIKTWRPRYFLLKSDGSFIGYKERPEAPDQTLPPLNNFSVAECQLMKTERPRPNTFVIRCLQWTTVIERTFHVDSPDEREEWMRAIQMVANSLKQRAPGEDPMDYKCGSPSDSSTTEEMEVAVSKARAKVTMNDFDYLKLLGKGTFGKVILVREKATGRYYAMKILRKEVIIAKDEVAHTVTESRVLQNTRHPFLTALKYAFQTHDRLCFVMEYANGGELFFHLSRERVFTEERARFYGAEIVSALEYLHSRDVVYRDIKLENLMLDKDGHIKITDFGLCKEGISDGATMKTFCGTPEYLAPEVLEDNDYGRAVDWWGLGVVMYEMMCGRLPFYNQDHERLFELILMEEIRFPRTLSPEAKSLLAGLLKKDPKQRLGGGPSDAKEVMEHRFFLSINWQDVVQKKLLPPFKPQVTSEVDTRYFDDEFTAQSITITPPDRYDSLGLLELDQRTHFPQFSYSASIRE", "test": "Selectivity interaction (KinomeScan (DiscoverX)) EUB0000618a AKT2", "conditions": "at 10 µM"}, "[8]": {"biological_target": "T3, Serine/threonine-protein kinase haspin (Homo sapiens) (UniProt Q8TF76)", "T3 sequence (whole entry)": "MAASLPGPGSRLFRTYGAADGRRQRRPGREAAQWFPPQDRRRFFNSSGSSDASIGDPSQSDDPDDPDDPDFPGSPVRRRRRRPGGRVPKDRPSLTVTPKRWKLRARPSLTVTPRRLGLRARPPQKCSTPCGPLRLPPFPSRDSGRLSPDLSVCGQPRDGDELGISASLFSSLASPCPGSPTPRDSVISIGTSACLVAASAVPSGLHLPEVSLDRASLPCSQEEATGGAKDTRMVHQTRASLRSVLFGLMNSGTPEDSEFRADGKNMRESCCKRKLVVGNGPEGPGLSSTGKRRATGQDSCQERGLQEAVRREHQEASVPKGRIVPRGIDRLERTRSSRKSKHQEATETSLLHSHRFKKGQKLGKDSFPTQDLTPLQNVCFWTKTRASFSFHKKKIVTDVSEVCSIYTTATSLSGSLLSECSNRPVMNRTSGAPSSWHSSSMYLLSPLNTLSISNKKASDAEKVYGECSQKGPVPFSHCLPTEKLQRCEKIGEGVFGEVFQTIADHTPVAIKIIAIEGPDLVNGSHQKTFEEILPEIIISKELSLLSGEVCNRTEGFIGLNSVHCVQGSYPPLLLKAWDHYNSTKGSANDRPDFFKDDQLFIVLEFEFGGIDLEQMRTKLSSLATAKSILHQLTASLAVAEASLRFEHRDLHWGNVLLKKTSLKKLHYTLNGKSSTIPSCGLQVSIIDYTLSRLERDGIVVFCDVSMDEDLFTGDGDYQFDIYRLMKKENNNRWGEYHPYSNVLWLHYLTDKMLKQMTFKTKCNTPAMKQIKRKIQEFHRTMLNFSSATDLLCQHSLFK", "test": "Selectivity interaction (Ambit KINOMEscan and KiNATiv profiling in Jurkat cells) EUB0000090b GSG2", "type": "cell-based", "conditions": "at 1 µM"}}, "data": [{"smiles": "COCC(=O)NC/C=C/c1ccc2ncnc(Nc3ccc(Oc4ccc(C)nc4)c(C)c3)c2c1", "note": "[CP-724714]", "values": [{"measurement": "% of control", "setting": "[1]", "result": 84, "unit": "%"}]}, {"smiles": "CN(C(=O)c1cnn2cccnc12)c1cc2c(cc1N1CCOCC1)C(=O)N(C[C@@H](F)C(C)(C)O)C2", "values": [{"measurement": "dTM", "setting": "Aurora kinase B", "result": -1.6, "unit": "K"}]}, {"smiles": "Cc1cc([C@@H](C)Nc2ccccc2C(=O)O)c2nc(N3CCOCC3)cc(=O)n2c1", "note": "[AZD-6482]", "values": [{"measurement": "% of control", "setting": "[2]", "result": 100, "unit": "%"}]}, {"smiles": "COc1cc(Nc2nc(C)cc(-c3cnn4nc(OC)ccc34)n2)cc(C(F)(F)F)c1", "values": [{"measurement": "% of control", "setting": "[3]", "result": 73, "unit": "%"}]}, {"smiles": "N#Cc1cccc(-c2c[nH]c3ncnc(N4CCOCC4)c23)c1", "values": [{"measurement": "% of control", "setting": "[4]", "result": 100, "unit": "%"}, {"measurement": "% of control", "setting": "[5]", "result": 62, "unit": "%"}]}, {"smiles": "CNC(=O)Nc1ccc(-c2nc(N3CC4CCC(C3)O4)c3cnn(C4CCC5(CC4)OCCO5)c3n2)cc1", "values": [{"measurement": "% of control", "setting": "[6]", "result": 90, "unit": "%"}]}, {"smiles": "O[C@H]1CC[C@H](Nc2ncc3nc(Nc4c(F)cc(F)cc4F)n([C@H]4CCOC4)c3n2)CC1", "values": [{"measurement": "% of control", "setting": "[7]", "result": 100, "unit": "%"}]}, {"smiles": "CN(C)C/C=C/C(=O)Nc1ccc(C(=O)N2CCCC(Nc3ncc(Cl)c(-c4c[nH]c5ccccc45)n3)C2)cc1", "note": "(centres undefined)", "values": [{"measurement": "% of control", "setting": "[8]", "result": 73, "unit": "%"}]}]}
